The values below come from ChEMBL document CHEMBL1159208, “The structures and cytotoxic properties of polyketide peroxides from a Plakortis sponge” (J Nat Prod, 1995).

The test system of the assay is NCI60. In words: Cytotoxicity against human NCI60 cells. The assay is classed as functional, cell-based.

Active and inactive are the calls of the source. No cut-off for these calls is given here.

Take `C[C@]1(CCCCCCCCCCc2ccccc2)C[C@@]2(C)OC(=O)C[C@H]2O1`: the result was inactive.
For `C[C@]1(CCCCCCCCc2ccccc2)CC[C@](C)(CCC(=O)O)OO1`, the outcome was inactive.
